Data from patent US11540981B2, “Nanoemulsion formulation with improved stability and cell penetration” (BIOFRONTERA BIOSCIENCE GMBH, priority 2006, dated 2023).

Legend:
[1] = Phase II clinical study: pharmacokinetic assessment of systemic plasma and urine levels; conditions: ALA-treated patients, compared with naturally occurring physiological values in the same individuals
[2] = high concentrations required for clinical application, neutral to basic pH range; cited from earlier work
[3] = 25° C.; cited from earlier work

| SMILES | plasma concentrations of ALA and its metabolite protoporphyrin IX [1] | urine concentrations of ALA and its metabolite protoporphyrin IX [1] | stability in aqueous solutions [2] | viscosity [3] |
| --- | --- | --- | --- | --- |
| NCC(=O)CCC(=O)O [ALA, 5-aminolevulinic acid] | not increased | not increased | unstable |  |
| CCO [ethanol] |  |  |  | 1.10 cp |
| CC(C)O [isopropanol] |  |  |  | 2.32 cp |
